Where a name gives a salt, the structure may show the parent alone.
Assays:
[1] = test system: PPC-1 cells; assay: Anoikis of PPC-1 cells in suspension versus adherent conditions (annexin V/PI, DAPI, colony formation); type: cell-based, human
Procedure: FIG. 12. Depletion of endogenous FLIP levels by siRNA sensitizes malignant cells to anoikis. (A) PPC-1 cells were seeded in adherent conditions overnight and then transfected with 25 nM anti-FLIP siRNA (siFLIP) or control luciferase siRNA (siCtrl). Thirty hours after transfection, cells were harvested, total protein isolated and analyzed by SDS-PAGE immunoblotting using anti-FLIP and anti-actin antibodies. (B) PPC-1 cells were transfected with increasing concentrations of siFLIP or siCtrl. After transfection, cells were treated with CH-11 Fas activating antibody (100 ng/ml). Thirty hours after incubation, cells were harvested and apoptosis measured by flow cytometry to detect cell surface annexin V expression and PI uptake. Data represents the mean±SEM percent of viable cells. (C) PPC-1 cells were transfected with increasing concentrations of siFLIP or siCtrl. After transfection, cells were subcultured under suspension conditions for 30 hours and then harvested. Apoptosis was measured by flow cytometry to detect cell surface annexin V expression and PI uptake. Data represents the mean±SEM of percent of viable cells. (D) Equal volumes of PPC-1 cells from panel C were replated under adherent conditions to permit clonogenic growth. One week after replating, cells were stained with methylene blue and the number of colonies counted. Data represents the mean±SEM percent of colonies compared to untreated controls.
FIG. 13. Small molecule down-regulation of FLIP sensitizes prostate cancer cells to anoikis. (A) PPC-1 cells were seeded overnight in adherent conditions and then treated with increasing concentrations of 5809354 for 16 hours. After incubation, cells were harvested. Total cellular RNA was extracted and mRNA levels of the long isoform of FLIP (FLIPL), the short isoform of FLIP (FLIPS), or rRNA levels of 18S were detected by real-time RT-PCR. Data were normalized using the ΔΔCT method and expressed as the mean±SEM percent of […] expression relative to untreated controls. (B) PPC-1 cells were cultured and treated as in panel A. Total cellular protein was isolated and analyzed by SDS-PAGE immunoblotting using anti-FLIP and anti-Actin antibodies. (C) PPC-1 cells were seeded overnight in adherent conditions and then exposed to increasing concentrations of 5809354 in the presence or absence of Fas-activating antibody (CH-11, 100 ng/mL). Thirty hours after incubation, cell viability was determined using the MTS assay. Data represents the mean±SEM of percent of viable cells. (D) PPC-1 cells were seeded overnight in adherent or suspension conditions and then treated with increasing concentrations of 5809354 for 30 hours. After incubation, apoptosis was measured by flow cytometry to detect cell surface annexin V expression and PI. Data represents the mean±SEM of percent of viable cells. (E) Cells were harvested, fixed, stained with DAPI, and nuclear morphology analyzed by fluorescence microscopy. Arrowheads refer to fragmented nuclei indicative of apoptosis. […] Thirty hours after incubation, cells were harvested and equal volumes plated in a colony formation assay. One week later, cells were stained with methylene blue and the number of colonies counted. Data represents the mean ±SEM percent of colonies relative to untreated controls.
FIG. 15. 5809354 sensitizes cells to anoikis through a caspase 8 dependent mechanism. (A) PPC-1 cells (5×10^4) were cultured under suspension conditions overnight and then treated with 5809354 in the presence or absence of the pan-caspase inhibitor z-VAD-fink (100 μM). Thirty hours after incubation, anoikis was determined by flow cytometry to detect cell surface annexin V expression and PI uptake. Data represents the mean±SEM percent of viable cells or colonies compared to untreated controls. (B) PPC-1 cells (5×10^4) were cultured in suspension conditions overnight and then treated with 5809354 (60 μM). […]

[2] = test system: PPC-1 cells; assay: MTT cell viability of PPC-1 cells treated with compound with or without CH-11 anti-FAS antibody; type: cell-based; details: for IC50: Homo sapiens, PPC-1, 24 h, compound alone without CH-11, MTT 24 hours, read-out: LD50 (μM) PPCl; for LD50 (μM) (PPCl, CH-11): PPC-1 cells with CH-11 100 ng/mL, MTT 24 hours, LD50 = concentration that reduces cell viability by 50%
Procedure: FIGS. 2A-C. […] PPC-1 cells (1×10^4) were seeded in 96 well plates. The next day, cells were treated with increasing concentrations of the sensitizing compounds with (open squares) and without (closed squares) CH-11 antibody (100 ng/mL). Cell viability was measured 24 hours later by MTT assay. Cell viability is expressed as a mean percentage of untreated cells+SD (n=3). The Chembridge identification numbers of the compounds are provided.
High throughput screening. […] PPC-1 cells (1×10^4) were seeded overnight into 96 well, flat-bottom plates (Costar, Cambridge, Mass.) in 100 μL of medium containing 2.5% FCS. […] CH-11 antibody (100 ng/mL) was then added, and the cells were incubated for 24 hours before assessing cell viability by a 3-(4,5-Dimethylthiazol-2-yl)-2,5-diphenyltetrazolium Bromide (MTT) dye reduction assay (Sigma).
Cell death assays. […] Absorbance readings were plotted against a standard curve to derive the corresponding cell number, and cell viability was expressed as a percentage relative to untreated cells.

[3] = test system: solid tumor cell lines; assay: MTT cell viability of a spectrum of tumor cell lines with or without CH-11; type: cell-based; details: 10 tumor cell lines, CH-11 100 ng/mL, MTT 24 hours
Procedure: FIG. 3. Compounds 6094911, 5809354, and 5569100 sensitize a spectrum of tumor cells to CH-11 anti-FAS antibody. Solid tumor cell lines were seeded overnight in 96 well plates at a density of 1×10^4 cells per well. The next day, cells were treated with increasing concentrations of compound 6094911, 5809354, or 5569100 with (square) or without (circle) CH-11 antibody (100 ng/mL). Cell viability was measured 24 hours later by MTT assay. Cell viability is expressed as a mean percentage of untreated cells+SD (n=3).
Cell death assays. Cell viability was measured by MTT and MTS assays, essentially as described in Schimmer et al. (2004). Absorbance readings were plotted against a standard curve to derive the corresponding cell number, and cell viability was expressed as a percentage relative to untreated cells. Apoptosis was measured by flow cytometric analysis of Annexin V surface expression after staining cells with FITC-anti-Annexin V and propidium iodide (PI) (Biovision, Mountain View, Calif.), as described in Pederson et al. (2002).
To assess the spectrum of activity of the small molecule FAS sensitizers, an additional 9 malignant cell lines derived from breast, ovarian, and prostate carcinomas were treated with increasing concentrations of the sensitizers in the presence or absence of CH-11. […]

CN[C@@H]1C[C@H]2O[C@@](C)([C@@H]1OC)n1c3ccccc3c3c4c(c5c6ccccc6n2c5c31)C(=O)NC4 [staurosporine, reference compound]
apoptosis in suspension versus adherent cells ([1]; thirty hours): did not discriminate between suspension and adherent cells

CC(=O)CC(=O)Nc1ccc(Cl)c(C(F)(F)F)c1 [compound 6094911, N-[4-chloro-3-(trifluoromethyl)phenyl]-3-oxobutanamide]
IC50 ([2]; PPC-1 cells): > 100 µM
LD50 (μM) (PPCl, CH-11) [2]: 35+4 μM
LD50 (μM) (PPCl, CH-11) ([2]; listed as N-[4-chloro-3-(trifluoromethyl)phenyl]-3-oxobutanamide): 35 ± 4 µM
direct toxicity ([2]; PPC-1 cells, compound alone, concentrations up to 80 μM): little direct toxicity
tumor cell lines sensitized to CH-11 [3]: 4 of 10

CCn1c(=N)n(CC(=O)c2cc(C(C)(C)C)c(O)c(C(C)(C)C)c2)c2ccccc21 [compound 5569100, 1-(3,5-di-tert-butyl-4-hydroxyphenyl)-2-(3-ethyl-2-imino-2,3-dihydro-1H-benzo[d]imidazol-1-yl)ethanone hydrobromide]
IC50 ([2]; PPC-1 cells): 15 µM
toxicity when added alone relative to 5541203 ([2]; PPC1 cells, without anti-FAS antibody): 3 times
LD50 (μM) (PPCl, CH-11) [2]: 5.6 µM
combination Index (CI) ([2]; combined with CH-11, median-dose combination index (Chou, 1991), synergy): did not demonstrate synergy

4-(4-chloro-2-methylphenoxy)-N-hydroxybutanamide [compound 5809354]
LD50 (μM) (PPCl, CH-11) [2]: 20+2 μM
tumor cell lines sensitized to CH-11 [3]: sensitized the same tumor lines with the exception of HT29
sensitization to anoikis ([1]; suspension conditions, 30 hours): sensitized cells to anoikis
effect of z-VAD-fmk on anoikis ([1]; suspension conditions, z-VAD-fmk 100 μM): z-VAD-fmk inhibited the ability of 5809354 to promote anoikis
apoptosis under adherent conditions ([1]; up to five days after treatment): did not induce apoptosis

Source: US8008354B2, “Death receptor sensitizing compounds and methods of use therefor” (Burnham Institute for Medical Research, priority 2006, dated 2011)
